Reference: patent publication US12624017B2, “Salt form of isoquinolinone type compound as rock inhibitor and preparation method therefor” (GUANGZHOU OCUSUN OPHTHALMIC BIOTECHNOLOGY CO., LTD., priority 2020, dated 2026)

Experiments:
[1] = tested on: New Zealand rabbits suffered with acute intraocular hypertension; test: Intraocular pressure reduction test in acute intraocular hypertension model; type: in vivo, New Zealand white rabbits; conditions: for Intraocular pressure in left eye: left eye (solvent only); for Intraocular pressure in right eye: 50 μL, right eye (modelled, dosed)
From the text: Acute intraocular hypertension was induced for rabbits by injection of a viscoelastic agent into the anterior chamber, and the effects of ocular pressure reduction of the compound of formula (I) were inspected by administration of eye drops at different concentrations.
Male New Zealand white rabbits, aged 97 to 127 days, weighted 2.5 to 3.4 kg, purchased from Pizhou Oriental Breeding Co., Ltd.
50 male New Zealand white rabbits were randomly divided into 5 groups according to body weight, 10 rabbits/group. The anterior chambers of the right eyes of animals in Groups 1 to 5 were injected with medical sodium hyaluronate gel in a single dose, 100 μL/eye, to induce ocular hypertension in the animals. In 5 to 15 min after molding, the right eye was administrated dropwise with the solvent, K-115, and the test article (compounds of formula (I) of different concentrations), and the left eye was administrated dropwise with the solvent, 50 μL/eye; and the intraocular pressures of the animals in both eyes were measured before administration, as well as at 2, 4, 6, 8, and 10 h after administration, respectively.

[2] = tested on: New Zealand rabbits with normal intraocular pressure; test: Eye irritation response detection with hand-held slit lamp, 14 days eye drops; type: in vivo, New Zealand white rabbits; conditions: 14 consecutive days, 50 μl/eye/day
Method: 42 male New Zealand white rabbits were randomly grouped into 7 groups according to body weights, 6 rabbits/group. Among the animals in Groups 1-7, the left eye was administrated dropwise with normal saline, and the right eye was administrated dropwise with a solvent/control/test article in an administration volume of 50 μL/eye respectively, once a day for 14 consecutive days, and the day of first administration was recorded as Day 1. The intraocular pressures of the animals were measured before administration on Day 1, as well as at 1 h, 2 h, 4 h, 6 h, 8 h and 10 h after administration on Day 1 (Table 10).
Animals were subjected to eye irritation response detection and fluorescein sodium detection (scored according to scoring criteria) in both eyes with a hand-held slit lamp before the start of test (Day −2/Day −1), before daily administration (Day 1 to Day 14), and at 1 h, 2 h, 4 h, 24 h, 48 h, and 72 h after the last administration (Day 14).
Animals were subjected to eye irritation response detection in both eyes with a handheld slit lamp on Day −2 to Day −1 before the start of test, before first administration every day (Day 1 to Day 14), and at 1 h, 2 h, 4 h, 24 h, 48 h, and 72 h after the last administration. The scoring criteria were as follows: […]

SMILES: Cc1ccc(C(=O)OCn2cc(C)c3c(S(=O)(=O)N4CC[C@H](N)C4)cccc3c2=O)c(C)c1 [Compound of formula (I)]
- Intraocular pressure in left eye ([1]; 0.25 mg/mL group, 2 h after administration): 6.07 mmHg
- Intraocular pressure in left eye ([1]; 0.25 mg/mL group, 4 h after administration): 6.60 mmHg
- Intraocular pressure in left eye ([1]; 0.25 mg/mL group, 6 h after administration): 9.10 mmHg
- Intraocular pressure in left eye ([1]; 0.25 mg/mL group, 8 h after administration): 11.50 mmHg
- Intraocular pressure in left eye ([1]; 0.25 mg/mL group, 10 h after administration): 12.43 mmHg
- Intraocular pressure in left eye ([1]; 0.25 mg/mL group, before administration): 10.53 mmHg
- Intraocular pressure in right eye ([1]; 0.25 mg/mL, 2 h after administration): 8.47 mmHg
- Intraocular pressure in right eye ([1]; 0.25 mg/mL, 4 h after administration): 8.60 mmHg
- Intraocular pressure in right eye ([1]; 0.25 mg/mL, 6 h after administration): 11.20 mmHg
- Intraocular pressure in right eye ([1]; 0.25 mg/mL, 8 h after administration): 13.37 mmHg
- Intraocular pressure in right eye ([1]; 0.25 mg/mL, 10 h after administration): 13.10 mmHg
- Intraocular pressure in right eye ([1]; 0.25 mg/mL, before administration): 11.43 mmHg
- Intraocular pressure in left eye ([1]; 2.0 mg/mL group, 2 h after administration): 6.60 mmHg
- Intraocular pressure in left eye ([1]; 2.0 mg/mL group, 4 h after administration): 7.04 mmHg
- Intraocular pressure in left eye ([1]; 2.0 mg/mL group, 6 h after administration): 11.23 mmHg
- Intraocular pressure in left eye ([1]; 2.0 mg/mL group, 8 h after administration): 12.84 mmHg
- Intraocular pressure in left eye ([1]; 2.0 mg/mL group, 10 h after administration): 13.10 mmHg
- Intraocular pressure in left eye ([1]; 2.0 mg/mL group, before administration): 11.27 mmHg
- Intraocular pressure in right eye ([1]; 2.0 mg/mL, 2 h after administration): 8.52 mmHg
- Intraocular pressure in right eye ([1]; 2.0 mg/mL, 4 h after administration): 11.56 mmHg
- Intraocular pressure in right eye ([1]; 2.0 mg/mL, 6 h after administration): 13.81 mmHg
- Intraocular pressure in right eye ([1]; 2.0 mg/mL, 8 h after administration): 12.96 mmHg
- Intraocular pressure in right eye ([1]; 2.0 mg/mL, 10 h after administration): 11.96 mmHg
- Intraocular pressure in right eye ([1]; 2.0 mg/mL, before administration): 11.23 mmHg
- Intraocular pressure in left eye ([1]; 8.0 mg/mL group, 2 h after administration): 5.93 mmHg
- Intraocular pressure in left eye ([1]; 8.0 mg/mL group, 4 h after administration): 6.43 mmHg
- Intraocular pressure in left eye ([1]; 8.0 mg/mL group, 6 h after administration): 10.10 mmHg
- Intraocular pressure in left eye ([1]; 8.0 mg/mL group, 8 h after administration): 11.87 mmHg
- Intraocular pressure in left eye ([1]; 8.0 mg/mL group, 10 h after administration): 13.19 mmHg
- Intraocular pressure in left eye ([1]; 8.0 mg/mL group, before administration): 11.20 mmHg
- Intraocular pressure in right eye ([1]; 8.0 mg/mL, 2 h after administration): 7.40 mmHg
- Intraocular pressure in right eye ([1]; 8.0 mg/mL, 4 h after administration): 7.97 mmHg
- Intraocular pressure in right eye ([1]; 8.0 mg/mL, 6 h after administration): 8.84 mmHg
- Intraocular pressure in right eye ([1]; 8.0 mg/mL, 8 h after administration): 8.60 mmHg
- Intraocular pressure in right eye ([1]; 8.0 mg/mL, 10 h after administration): 8.78 mmHg
- Intraocular pressure in right eye ([1]; 8.0 mg/mL, before administration): 11.53 mmHg
- Intraocular pressure reduction effect (conclusion) ([1]; at different test doses (0.25, 2.0, 8.0 mg/mL), amplitude and sustained effect better than K-115): good intraocular pressure reduction effects
- Eye irritation (conclusion) ([2]; 0.25 to 4 mg/mL): no irritation

SMILES: C[C@H]1CNCCCN1S(=O)(=O)c1cccc2cncc(F)c12 [K-115, reference compound]
- Intraocular pressure in left eye ([1]; 4 mg/mL group, 2 h after administration): 6.50 mmHg
- Intraocular pressure in left eye ([1]; 4 mg/mL group, 4 h after administration): 8.54 mmHg
- Intraocular pressure in left eye ([1]; 4 mg/mL group, 6 h after administration): 11.40 mmHg
- Intraocular pressure in left eye ([1]; 4 mg/mL group, 8 h after administration): 13.20 mmHg
- Intraocular pressure in left eye ([1]; 4 mg/mL group, 10 h after administration): 13.37 mmHg
- Intraocular pressure in left eye ([1]; 4 mg/mL group, before administration): 11.80 mmHg
- Intraocular pressure in right eye ([1]; 4 mg/mL, 2 h after administration): 8.20 mmHg
- Intraocular pressure in right eye ([1]; 4 mg/mL, 4 h after administration): 11.27 mmHg
- Intraocular pressure in right eye ([1]; 4 mg/mL, 6 h after administration): 15.07 mmHg
- Intraocular pressure in right eye ([1]; 4 mg/mL, 8 h after administration): 15.57 mmHg
- Intraocular pressure in right eye ([1]; 4 mg/mL, 10 h after administration): 16.47 mmHg
- Intraocular pressure in right eye ([1]; 4 mg/mL, before administration): 11.77 mmHg
- Eye irritation (conclusion) ([2]; 4 mg/mL): no irritation
